Source: patent US20110014243A1, “PHARMACEUTICAL COMPOSITIONS” (priority 2007, published 2011)

Assay: Stability of milled and unmilled Compound 1A in combination with calcium carbonate, HPLC
Type: physicochemical
Details: mixed with calcium carbonate, open vials at 50° C. and 75% relative humidity
Experimental: Samples containing 1092 mg of calcium carbonate and […] Compound 1A (either milled or unmilled) were prepared and weighed into small amber glass bottles. Samples were stored in open vials at 50° C. and 75% relative humidity. The samples were then removed after two or four weeks and stored at room temperature for up to four days prior to being analysed and were stored in open vials at 50° C. and 75% RH. The blends of Compound 1A and calcium carbonate were transferred to a glass volumetric flask and diluted to a volume of 10 ml or 100 ml with a 0.05% trifluoroacetic acid (TFA) solution in 50/50 acetonitrile/water to provide a 1 mg/ml solution of Compound 1A. The solution was stirred using a magnetic stirrer for 20 minutes then left for 5 minutes before 1 ml aliquots were taken using a plastic syringe. The aliquots were filtered through a 0.45 μm syringe filter into amber glass vials for HPLC analysis.

Measured: area % of Compound 2A compared to Compound 1A

CC(C)c1cc(Oc2c(Br)cc(NC(=O)CC(=O)O)cc2Br)ccc1O [Compound 1A, 3-[[3,5-Dibromo-4-[4-hydroxy-3-(1-methylethyl)-phenoxy]-phenyl]-amino]-3-oxopropanoic acid]
0.2 area %: milled, 2 weeks | milled, 4 weeks | unmilled, 2 weeks | unmilled, 4 weeks
